Like-named read-outs stand apart in the source and are kept apart here.
How the values were obtained:
[1] = molecular target: T1, human NPR1 (Homo sapiens, UniProt P16066); experiment: Cellular cGMP production assay, human NPR1 expressing CHO-K1 cells (CisBio HTRF); assay type: cell-based; conditions: for AC50: cGMP production, 30 min at 37° C., 12-point dose-response from 30 μM; for Human NPR1 Amax (% of ANP): maximum cGMP production as percentage of the maximum cGMP produced with ANP
T1 construct: host or cells: CHO-K1
T1 sequence (P16066 33-1061): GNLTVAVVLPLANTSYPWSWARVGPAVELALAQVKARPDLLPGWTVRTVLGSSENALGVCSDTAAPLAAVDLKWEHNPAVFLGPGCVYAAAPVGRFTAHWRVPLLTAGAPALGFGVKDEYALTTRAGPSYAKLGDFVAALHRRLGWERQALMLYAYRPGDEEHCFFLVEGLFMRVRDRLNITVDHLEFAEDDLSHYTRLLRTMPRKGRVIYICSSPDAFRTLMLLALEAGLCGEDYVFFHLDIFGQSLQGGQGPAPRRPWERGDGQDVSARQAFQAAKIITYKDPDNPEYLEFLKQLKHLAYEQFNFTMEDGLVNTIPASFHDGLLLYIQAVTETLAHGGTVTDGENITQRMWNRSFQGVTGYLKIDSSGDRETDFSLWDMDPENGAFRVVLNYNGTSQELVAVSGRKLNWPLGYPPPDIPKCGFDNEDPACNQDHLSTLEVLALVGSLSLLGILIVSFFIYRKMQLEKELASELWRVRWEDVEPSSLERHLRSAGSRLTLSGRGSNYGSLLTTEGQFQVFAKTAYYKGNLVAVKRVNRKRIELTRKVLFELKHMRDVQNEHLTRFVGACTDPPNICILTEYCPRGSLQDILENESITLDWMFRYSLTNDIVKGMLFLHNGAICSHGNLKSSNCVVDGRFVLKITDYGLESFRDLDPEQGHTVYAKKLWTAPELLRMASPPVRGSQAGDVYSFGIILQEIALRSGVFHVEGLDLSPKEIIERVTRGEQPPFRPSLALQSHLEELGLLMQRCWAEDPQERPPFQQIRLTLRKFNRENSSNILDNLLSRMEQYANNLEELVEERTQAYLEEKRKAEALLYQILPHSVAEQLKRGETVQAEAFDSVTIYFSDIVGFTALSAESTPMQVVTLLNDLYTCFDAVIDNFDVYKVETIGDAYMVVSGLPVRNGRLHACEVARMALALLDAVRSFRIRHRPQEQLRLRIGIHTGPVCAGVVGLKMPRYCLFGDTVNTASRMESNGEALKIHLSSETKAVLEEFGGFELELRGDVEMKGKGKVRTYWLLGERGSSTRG
How it was run: (§1)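 Step 1: add buffer (PBS, 0.1% BSA, 1 mM IBMX) and compounds, 3-fold series from 30 μM top. Step 2: incubate 30 min, 37 °C. Step 3: lyse; HTRF reagents 1 h at RT.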

[2] = molecular target: monkey NPR1 (Macaca fascicularis, UniProt A0A7N9DBT9); experiment: Cellular cGMP production assay, monkey NPR1 expressing CHO-K1 cells (CisBio HTRF); assay type: cell-based; conditions: for Monkey NPR1 Amax (% of ANP): maximum cGMP production as percentage of the maximum cGMP produced with ANP
Chain of monkey NPR1 (A0A7N9DBT9 entry or part of it): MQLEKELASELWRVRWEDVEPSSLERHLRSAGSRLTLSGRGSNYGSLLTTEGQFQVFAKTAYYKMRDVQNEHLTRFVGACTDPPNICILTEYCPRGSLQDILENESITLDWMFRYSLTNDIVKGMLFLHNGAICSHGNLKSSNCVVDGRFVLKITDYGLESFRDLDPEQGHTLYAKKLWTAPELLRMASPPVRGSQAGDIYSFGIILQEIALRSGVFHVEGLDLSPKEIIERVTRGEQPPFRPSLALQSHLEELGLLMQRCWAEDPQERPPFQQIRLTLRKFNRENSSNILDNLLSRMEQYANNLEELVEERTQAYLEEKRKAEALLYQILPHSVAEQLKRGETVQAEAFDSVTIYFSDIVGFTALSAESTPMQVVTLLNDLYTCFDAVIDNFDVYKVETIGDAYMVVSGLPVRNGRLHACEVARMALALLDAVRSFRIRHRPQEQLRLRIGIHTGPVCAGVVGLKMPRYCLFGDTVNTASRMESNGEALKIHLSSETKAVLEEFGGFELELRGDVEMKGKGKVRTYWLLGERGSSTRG
How it was run: as §1

[3] = cGMP production, monkey NPR1 CHO-K1 cells, 30 min at 37° C., 12-point dose-response from 30 μM, read-out: Monkey NPR1 AC50

Row | SMILES | AC50 [1] [nM] | Human NPR1 Amax (% of ANP) [1] | AC50 [2, 3] [nM] | Monkey NPR1 Amax (% of ANP) ([2]; monkey NPR1 CHO-K1 cells) | AC50 [2] [nM]
1 | CC[C@@H](Nc1nc2c(c(N[C@@H](CN3CCCCC3)c3cnn(CC)c3)n1)C[C@@H](c1cccc(F)c1)CC2)[C@H]1CC[C@H](C(=O)O)CC1 [Compound 50, (1R,4r)-4-((R)-1-(((S)-4-(((R)-1-(1-ethyl-1H-pyrazol-4-yl)-2-(piperidin-1-yl)ethyl)amino)-6-(3-fluorophenyl)-5,6,7,8-tetrahydroquinazolin-2-yl)amino)propyl)cyclohexane-1-carboxylic acid] | 187 | 93.357 % of ANP | 135 | 107.881 % of ANP | 
2 | CC[C@H]([C@H]1CC[C@H](C(=O)O)CC1)N(C)c1nc2c(c(N[C@@H](CN3C4CCCC3CC4)c3cnn(C)c3)n1)C[C@H](c1cccc(F)c1)CC2 [Compound 33, (1R,4r)-4-((1R)-1-(((6R)-4-(((1R)-2-(8-azabicyclo[3.2.1]octan-8-yl)-1-(1-methyl-1H-pyrazol-4-yl)ethyl)amino)-6-(3-fluorophenyl)-5,6,7,8-tetrahydroquinazolin-2-yl)(methyl)amino)propyl)cyclohexane-1-carboxylic acid] | 145 | 99.163 % of ANP |  | 106.934 % of ANP | 104
3 | CC[C@H]([C@H]1CC[C@H](C(=O)O)CC1)N(C)c1nc2c(c(N[C@@H](CN3CCC[C@@H](C)C3)c3cnn(C)c3)n1)C[C@H](c1ccccc1)CC2 [Compound 125, (1R,4r)-4-((R)-1-(methyl((R)-4-(((R)-1-(1-methyl-1H-pyrazol-4-yl)-2-((R)-3-methylpiperidin-1-yl)ethyl)amino)-6-phenyl-5,6,7,8-tetrahydroquinazolin-2-yl)amino)propyl)cyclohexane-1-carboxylic acid] | 619 | 106.130 % of ANP | 410 | 114.072 % of ANP | 
4 | CC[C@H]([C@H]1CC[C@H](C(=O)O)CC1)N(C)c1nc2c(c(N[C@@H](CN3C4CCCC3CC4)c3cnn(C)c3)n1)C[C@](C)(c1ccccc1)CC2 [Compound 34, (1R,4r)-4-((1R)-1-(((6R)-4-(((1R)-2-(8-azabicyclo[3.2.1]octan-8-yl)-1-(1-methyl-1H-pyrazol-4-yl)ethyl)amino)-6-methyl-6-phenyl-5,6,7,8-tetrahydroquinazolin-2-yl)(methyl)amino)propyl)cyclohexane-1-carboxylic acid] | 146 | 95.375 % of ANP |  | 100.553 % of ANP | 91
5 | CC[C@H]([C@H]1CC[C@H](C(=O)O)CC1)N(C)c1nc2c(c(N[C@@H](CN3CCC[C@H](C)C3)c3cnn(C)c3)n1)CN(c1ccc(F)cc1)CC2 [Compound 110, (1R,4r)-4-((R)-1-((6-(4-fluorophenyl)-4-(((R)-1-(1-methyl-1H-pyrazol-4-yl)-2-((S)-3-methylpiperidin-1-yl)ethyl)amino)-5,6,7,8-tetrahydropyrido[4,3-d]pyrimidin-2-yl)(methyl)amino)propyl)cyclohexane-1-carboxylic acid] | 419 | 99.979 % of ANP | 238 | 103.438 % of ANP | 
6 | C[C@H]1CCCN(C[C@H](Nc2nc(N(C)[C@H](C3CC3)[C@H]3CC[C@H](C(=O)O)CC3)nc3c2C[C@H](c2cccc(F)c2)CC3)c2cnn(C)c2)C1 [Compound 47, (1R,4r)-4-((R)-cyclopropyl(((R)-6-(3-fluorophenyl)-4-(((R)-1-(1-methyl-1H-pyrazol-4-yl)-2-((S)-3-methylpiperidin-1-yl)ethyl)amino)-5,6,7,8-tetrahydroquinazolin-2-yl)(methyl)amino)methyl)cyclohexane-1-carboxylic acid] | 180 | 101.280 % of ANP | 97 | 96.550 % of ANP | 
7 | CCC(N(C)c1nc2c(c(N[C@@H](CN3C4CCCC3CCC4)c3cnn(C)c3)n1)C[C@H](c1ccccc1)CC2)C12CC(C(=O)O)(C1)C2 (stereo partly drawn) [Compound 74, 3-(1-(((R)-4-(((R)-2-((1S,5S)-9-azabicyclo[3.3.1]nonan-9-yl)-1-(1-methyl-1H-pyrazol-4-yl)ethyl)amino)-6-phenyl-5,6,7,8-tetrahydroquinazolin-2-yl)(methyl)amino)-1l3-propyl)bicyclo[1.1.1]pentane-1-carboxylic acid] | 246 | 102.182 % of ANP |  | 117.270 % of ANP | 167
8 | CC[C@H]([C@H]1CC[C@H](C(=O)O)CC1)N(C)c1nc2c(c(N[C@@H](CN3C4CCCC3CCC4)c3cnn(CC)c3)n1)C[C@H](c1cccc(F)c1)CC2 [Compound 18, (1R,4r)-4-((R)-1-(((R)-4-(((R)-2-((1S,5S)-9-azabicyclo[3.3.1]nonan-9-yl)-1-(1-ethyl-1H-pyrazol-4-yl)ethyl)amino)-6-(3-fluorophenyl)-5,6,7,8-tetrahydroquinazolin-2-yl)(methyl)amino)propyl)cyclohexane-1-carboxylic acid] | 107 | 97.609 % of ANP |  | 100.607 % of ANP | 71
9 | CC[C@H](N(C)c1nc2c(c(N[C@@H](CN3C4CCCC3CC4)c3cnn(C)c3)n1)C[C@](C)(c1ccccc1)CC2)C12CC(C(=O)O)(C1)C2 [Compound 69, 3-((1S)-1-(((6R)-4-(((1R)-2-(8-azabicyclo[3.2.1]octan-8-yl)-1-(1-methyl-1H-pyrazol-4-yl)ethyl)amino)-6-methyl-6-phenyl-5,6,7,8-tetrahydroquinazolin-2-yl)(methyl)amino)propyl)bicyclo[1.1.1]pentane-1-carboxylic acid] | 234 | 98.634 % of ANP |  | 100.449 % of ANP | 220
10 | C[C@@H](Nc1nc2c(c(N[C@@H](CN3C4CCCC3CCC4)c3cnn(C)c3)n1)C[C@H](c1ccccc1)CC2)c1ccc(C(=O)O)c(F)c1 [Compound 168, 4-((R)-1-(((R)-4-(((R)-2-((1S,5S)-9-azabicyclo[3.3.1]nonan-9-yl)-1-(1-methyl-1H-pyrazol-4-yl)ethyl)amino)-6-phenyl-5,6,7,8-tetrahydroquinazolin-2-yl)amino)ethyl)-2-fluorobenzoic acid] | 2230 | 96.777 % of ANP |  | 93.654 % of ANP | 1540
11 | CC[C@@H](Nc1nc2c(c(N[C@@H](CN3CC4CCC3C4)c3ccccc3)n1)C[C@H](c1ccccc1)CC2)[C@H]1CC[C@H](C(=O)O)CC1 (stereo partly drawn) [Compound 160, (1R,4r)-4-((1R)-1-(((6R)-4-(((1R)-2-(2-azabicyclo[2.2.1]heptan-2-yl)-1-phenylethyl)amino)-6-phenyl-5,6,7,8-tetrahydroquinazolin-2-yl)amino)propyl)cyclohexane-1-carboxylic acid] | 1620 | 94.868 % of ANP | 1430 | 102.098 % of ANP | 
12 | CC[C@@H](Nc1nc2c(c(N[C@@H](CN3CCCC3)c3ccccc3)n1)CN(c1cccc(F)c1)CC2)[C@H]1CC[C@H](C(=O)O)CC1 [Compound 99, (1R,4r)-4-((R)-1-((6-(3-fluorophenyl)-4-(((R)-1-phenyl-2-(pyrrolidin-1-yl)ethyl)amino)-5,6,7,8-tetrahydropyrido[4,3-d]pyrimidin-2-yl)amino)propyl)cyclohexane-1-carboxylic acid] | 351 | 102.315 % of ANP | 256 | 94.886 % of ANP | 
13 | CC[C@@H](N(C)c1nc2c(c(N[C@@H](CN3C4CCCC3CCC4)c3cnn(C)c3)n1)C[C@H](c1cccc(F)c1)CC2)C12CC(C(=O)O)(C1)C2 [Compound 6, 3-((R)-1-(((R)-4-(((R)-2-((1S,5S)-9-azabicyclo[3.3.1]nonan-9-yl)-1-(1-methyl-1H-pyrazol-4-yl)ethyl)amino)-6-(3-fluorophenyl)-5,6,7,8-tetrahydroquinazolin-2-yl)(methyl)amino)propyl)bicyclo[1.1.1]pentane-1-carboxylic acid] | 77 | 98.462 % of ANP |  | 98.535 % of ANP | 58
